In patent EP4635944A1, “2-AZABICYCLO[3.1.1]HEPTANE COMPOUND” (Daiichi Sankyo Company, Limited, priority 2022, dated 2024) one finds EC50 data, which are given here for 22 molecules.

Broadly, the EC50 is the midpoint of the concentration-response curve.

The target of this experiment is T1, human OX2R (Homo sapiens, UniProt O43614).
T1 construct: host or cells: CHO-K1 (Chinese Hamster Ovary K1)
T1 sequence (O43614 1-444): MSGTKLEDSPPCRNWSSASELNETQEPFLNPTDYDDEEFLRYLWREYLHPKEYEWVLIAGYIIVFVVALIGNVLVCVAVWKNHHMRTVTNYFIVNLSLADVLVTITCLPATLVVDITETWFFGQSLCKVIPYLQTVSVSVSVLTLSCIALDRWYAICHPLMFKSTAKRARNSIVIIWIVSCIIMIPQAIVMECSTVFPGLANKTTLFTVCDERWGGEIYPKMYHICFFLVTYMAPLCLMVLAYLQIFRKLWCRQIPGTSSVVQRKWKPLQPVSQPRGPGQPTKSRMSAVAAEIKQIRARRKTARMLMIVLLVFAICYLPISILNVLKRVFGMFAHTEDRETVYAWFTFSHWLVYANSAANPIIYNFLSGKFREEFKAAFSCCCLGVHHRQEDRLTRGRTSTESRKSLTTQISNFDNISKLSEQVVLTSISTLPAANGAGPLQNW
The experiment is described as follows: Evaluation of OX2R agonist activity (intracellular calcium, CHO-K1 cells with forced expression of human OX2R). The class given is cell-based. The following applies: CHO-K1 cells expressing human OX2R; 100% = 5 µM of the reference compound; read-out: hOX2R EC50. The procedure:
Evaluation of OX2R agonist activity
Chinese Hamster Ovary K1 (CHO-K1) cells (GenScript) with forced expression of human OX2R were seeded onto a 384 well microplate (Corning) at 7500 cells/well and cultured for 24 hours. 20 µL of the loading buffer (25 mM HEPES containing 1.25 mM of Probenecid and 2.5 µg/mL of Fluo 4-AM at final concentration, Hank's balanced salt solution, 0.06% Pluronic F-127, Quenching buffer) in the Calcium Kit II (DOJINDO LABORATORIES) was added, and the microplate was allowed to stand for 30 minutes. A reference compound (Example435 of WO 2019/027058, N-[(2S,3S)-2-[[3-(3,5-difluorophenyl)-2-fluoro-phenyl]methyl]-1-(2-hydroxy-2-methylpropanoyl)pyrrolidin-3-yl]ethanesulfonamide) or the test compound was added in 10 µL, and changes in intracellular calcium ion concentration were measured using FDSS7000EX (Hamamatsu Photonics K.K.) as a fluorescence intensity ratio obtained upon dual wavelength excitation at 480 nm and 540 nm. Note that the reference compound or test compound was dissolved in DMSO (final concentration of DMSO was 0.5%) and diluted with an assay buffer (20 mM HEPES, Hank's balanced salt solution, 0.1% BSA). The difference between the maximum and minimum fluorescence values between 5 and 7 seconds after the addition of the test compound or reference compound was used as the indicator. The value of wells to which the assay buffer containing no test compound was added was defined as 0%, and the value of wells to which 5 µM of the reference compound was added was defined as 100%. The 50% effective concentration (EC50 value) was determined from the values obtained when various concentrations of the test compound were added. […]
A general note: A change in cytosolic calcium serves as a functional read-out for many receptors and channels.
As for `CS(=O)(=O)N[C@H]1C2CC(C2)N(C(=O)C2(F)CC2)[C@H]1Cc1cccc(-c2cc(F)cc(F)c2)c1F` [Example 19, N-{(3S,4S)-2-[(1-Fluorocyclopropyl)carbonyl]-3-[(2,3',5'-trifluoro[biphenyl]-3-yl)methyl]-2-azabicyclo[3.1.1]heptan-4-yl}methanesulfonamide], the EC50 was found to be 0.38 µM.
The result for `CC(C)(O)C(=O)N1C2CC(F)(C2)C(NS(C)(=O)=O)C1Cc1cccc(-c2cccc(Cl)c2)c1F` (single isomer, unassigned) [Example 61, N-[(3S,4R)-3-[(3'-Chloro-2-fluoro[biphenyl]-3-yl)methyl]-5-fluoro-2-(2-hydroxy-2-methylpropanoyl)-2-azabicyclo[3.1.1]heptan-4-yl]methanesulfonamide or N-[(3R,4S)-3-[(3'-chloro-2-fluoro[biphenyl]-3-yl)methyl]-5-fluoro-2-(2-hydroxy-2-methylpropanoyl)-2-azabicyclo[3.1.1]heptan-4-yl]methanesulfonamide] reads 0.04 µM; that for `CC(C)(O)C(=O)N1C2CC(F)(C2)[C@H](NS(C)(=O)=O)[C@@H]1Cc1cccc(-c2ccccc2)c1F` [Example 50, N-[(3S,4R)-5-Fluoro-3-[(2-fluoro[biphenyl]-3-yl)methyl]-2-(2-hydroxy-2-methylpropanoyl)-2-azabicyclo[3.1.1]heptan-4-yl]methanesulfonamide], 0.041 µM.
The result for `CS(=O)(=O)N[C@H]1C2CC(C2)N(C(=O)C(O)C(F)F)[C@H]1Cc1cccc(-c2ccccc2)c1F` (single isomer, unassigned) [Example 72] reads 0.112 µM.
The result for `CS(=O)(=O)N[C@H]1C2CC(C2)N(C(=O)NCC2CC2)[C@H]1Cc1cccc(-c2cc(F)cc(F)c2)c1F` [Example 39, (3S,4S)-N-(Cyclopropylmethyl)-4-[(methylsulfonyl)amino]-3-[(2,3',5'-trifluoro[biphenyl]-3-yl)methyl]-2-azabicyclo[3.1.1]heptane-2-carboxamide] reads 0.094 µM; that for `CC(C)(O)C(=O)N1C2CC(C2)[C@H](NS(C)(=O)=O)[C@@H]1Cc1cccc(-c2cc(F)cc(Cl)c2)c1F` [Example 52, N-[(3S,4S)-3-[(3'-Chloro-2,5'-difluoro[biphenyl]-3-yl)methyl]-2-(2-hydroxy-2-methylpropanoyl)-2-azabicyclo[3.1.1]heptan-4-yl]methanesulfonamide], 0.034 µM; that for `CS(=O)(=O)N[C@H]1C2CC(C2)N(C(=O)C2CC2)[C@H]1Cc1cccc(-c2cc(F)cc(F)c2)c1F` [Example 20, N-{(3S,4S)-2-(Cyclopropylcarbonyl)-3-[(2,3',5'-trifluoro[biphenyl]-3-yl)methyl]-2-azabicyclo[3.1.1]heptan-4-yl}methanesulfonamide], 0.032 µM.
Turning to `C[C@@H](O)C(=O)N1C2CC(C2)[C@H](NS(C)(=O)=O)[C@@H]1Cc1cccc(-c2csc(Cl)c2)c1F` [Example 68, N-{(3S,4S)-3-[3-(5-Chlorothiophen-3-yl)-2-fluorobenzyl]-2-[(2R)-2-hydroxypropanoyl]-2-azabicyclo[3.1.1]heptan-4-yl}methanesulfonamide], the EC50 came out at 0.037 µM.
Regarding `CS(=O)(=O)N[C@@H]1[C@H](Cc2cccc(-c3ccccc3)c2F)N(C(=O)[C@H](O)C(F)(F)F)C2CC1(F)C2` [Example 69, N-{(3S,4R)-5-Fluoro-3-[(2-fluoro[biphenyl]-3-yl)methyl]-2-[(2S)-3,3,3-trifluoro-2-hydroxypropanoyl]-2-azabicyclo[3.1.1]heptan-4-yl}methanesulfonamide], the EC50 came out at 0.035 µM.
In the case of `CNC(=O)N1C2CC(C2)[C@H](NS(C)(=O)=O)[C@@H]1Cc1cccc(-c2cc(F)cc(F)c2)c1F` [Example 27, (3S,4S)-N-Methyl-4-[(methylsulfonyl)amino]-3-[(2,3',5'-trifluoro[biphenyl]-3-yl)methyl]-2-azabicyclo[3.1.1]heptane-2-carboxamide], the EC50 amounted to 0.061 µM.
In the case of `CC(C(=O)N1C2CC(C2)[C@H](NS(C)(=O)=O)[C@@H]1Cc1cccc(-c2ccccc2)c1F)n1cccn1` (stereo partly drawn) [Example 93, N-{(3S,4S)-3-[(2-Fluoro[biphenyl]-3-yl)methyl]-2-[2-(1H-pyrazol-1-yl)propanoyl]-2-azabicyclo[3.1.1]heptan-4-yl}methanesulfonamide], the EC50 was determined as 0.023 µM.
As for `C[C@@H](O)C(=O)N1C2CC(C2)[C@H](NS(C)(=O)=O)[C@@H]1Cc1cccc(-c2cccc(C(F)F)c2)c1F` [Example 24, N-{(3S,4S)-3-{[3'-(Difluoromethyl)-2-fluoro[biphenyl]-3-yl]methyl}-2-[(2R)-2-hydroxypropanoyl]-2-azabicyclo[3.1.1]heptan-4-yl}methanesulfonamide], the figure is 0.015 µM; as for `C[C@@H](O)C(=O)N1C2CC(C2)[C@H](NS(=O)(=O)C2CC2)[C@@H]1Cc1cccc(-c2ccccc2)c1F` [Example 44, N-{(3S,4S)-3-[(2-Fluoro[biphenyl]-3-yl)methyl]-2-[(2R)-2-hydroxypropanoyl]-2-azabicyclo[3.1.1]heptan-4-yl}cyclopropanesulfonamide], 0.022 µM; as for `CCS(=O)(=O)N[C@H]1C2CC(C2)N(C(=O)[C@@H](C)O)[C@H]1Cc1cccc(-c2ccccc2)c1F` (single isomer, unassigned) [Example 80], 0.016 µM.
On to `Cc1cccc(-c2cccc(C[C@H]3[C@@H](NS(C)(=O)=O)C4CC(C4)N3C(=O)C(C)(C)O)c2F)c1` [Example 11, N-[(3S,4S)-3-[(2-Fluoro-3'-methyl[biphenyl]-3-yl)methyl]-2-(2-hydroxy-2-methylpropanoyl)-2-azabicyclo[3.1.1]heptan-4-yl]methanesulfonamide], for which the 50% effective concentration (EC50) came to 0.06 µM.
As for `CS(=O)(=O)N[C@H]1C2CC(C2)N(C(=O)[C@H](O)CF)[C@H]1Cc1cccc(-c2ccccc2)c1F` [Example 75, N-{(3S,4S)-3-[(2-Fluoro[biphenyl]-3-yl)methyl]-2-[(2S)-3-fluoro-2-hydroxypropanoyl]-2-azabicyclo[3.1.1]heptan-4-yl}methanesulfonamide], the figure is 0.078 µM; as for `CC(C)(O)C(=O)N1C2CC(C2)[C@H](NS(C)(=O)=O)[C@@H]1Cc1cccc(-c2cc(F)cc(F)c2)c1F` (single isomer, unassigned) [Example 1], 0.067 µM; as for `CO[C@H](C)C(=O)N1C2CC(C2)[C@H](NS(C)(=O)=O)[C@@H]1Cc1cccc(-c2cc(F)cc(F)c2)c1F` [Example 48, N-{(3S,4S)-2-[(2R)-2-Methoxypropanoyl]-3-[(2,3',5'-trifluoro[biphenyl]-3-yl)methyl]-2-azabicyclo[3.1.1]heptan-4-yl}methanesulfonamide], 0.033 µM.
Take `CC(C)(O)C(=O)N1C2CC(C2)C(NS(C)(=O)=O)C1Cc1cccc(-c2cc(F)cc(F)c2)c1` (single isomer, unassigned) [Example 13, N-{3-[(3',5'-Difluoro[biphenyl]-3-yl)methyl]-2-(2-hydroxy-2-methylpropanoyl)-2-azabicyclo[3.1.1]heptan-4-yl}methanesulfonamide]: the 50% effective concentration (EC50) amounted to 1.14 µM.
Regarding `CS(=O)(=O)N[C@@H]1[C@H](Cc2cccc(-c3ccccc3)c2F)N(C(=O)[C@H]2CCO2)C2CC1(F)C2` [Example 70, N-{(3S,4R)-5-Fluoro-3-[(2-fluoro[biphenyl]-3-yl)methyl]-2-[(2R)-oxetan-2-ylcarbonyl]-2-azabicyclo[3.1.1]heptan-4-yl}methanesulfonamide], the EC50 was determined as 0.026 µM.
For `COc1cccc(-c2cccc(C[C@H]3[C@@H](NS(C)(=O)=O)C4CC(C4)N3C(=O)C(C)(C)O)c2F)c1` (stereo in doubt) [Example 14, N-[(3S,4S)-3-[(2-Fluoro-3'-methoxy[biphenyl]-3-yl)methyl]-2-(2-hydroxy-2-methylpropanoyl)-2-azabicyclo[3.1.1]heptan-4-yl]methanesulfonamide], the EC50 came out at 0.298 µM.
The result for `CS(=O)(=O)N[C@H]1C2CC(C2)N(C(=O)[C@H](O)C2CC2)[C@H]1Cc1cccc(-c2ccccc2)c1F` [Example 64, N-{(3S,4S)-2-[(2R)-2-Cyclopropyl-2-hydroxyacetyl]-3-[(2-fluoro[biphenyl]-3-yl)methyl]-2-azabicyclo[3.1.1]heptan-4-yl}methanesulfonamide] reads 0.041 µM.
